Measurements reported in publication PMC11378297, “Discovery and Profiling of New Multimodal Phenylglycinamide Derivatives as Potent Antiseizure and Antinociceptive Drug Candidates” (ACS Chemical Neuroscience, 2024).
Read-outs that look alike come from different tables or passages of the source.

How the values were obtained:
[1] = target: T1, TRPM8 (h) (Homo sapiens, UniProt Q7Z2W7); assay: TRPM8 (h) (antagonist effect); format: cell-based; conditions: HEK293, human recombinant HEK-293 cell, read-out: % inhibition of control agonist response
T1 construct: Eurofins
T1 sequence (Q7Z2W7 whole entry): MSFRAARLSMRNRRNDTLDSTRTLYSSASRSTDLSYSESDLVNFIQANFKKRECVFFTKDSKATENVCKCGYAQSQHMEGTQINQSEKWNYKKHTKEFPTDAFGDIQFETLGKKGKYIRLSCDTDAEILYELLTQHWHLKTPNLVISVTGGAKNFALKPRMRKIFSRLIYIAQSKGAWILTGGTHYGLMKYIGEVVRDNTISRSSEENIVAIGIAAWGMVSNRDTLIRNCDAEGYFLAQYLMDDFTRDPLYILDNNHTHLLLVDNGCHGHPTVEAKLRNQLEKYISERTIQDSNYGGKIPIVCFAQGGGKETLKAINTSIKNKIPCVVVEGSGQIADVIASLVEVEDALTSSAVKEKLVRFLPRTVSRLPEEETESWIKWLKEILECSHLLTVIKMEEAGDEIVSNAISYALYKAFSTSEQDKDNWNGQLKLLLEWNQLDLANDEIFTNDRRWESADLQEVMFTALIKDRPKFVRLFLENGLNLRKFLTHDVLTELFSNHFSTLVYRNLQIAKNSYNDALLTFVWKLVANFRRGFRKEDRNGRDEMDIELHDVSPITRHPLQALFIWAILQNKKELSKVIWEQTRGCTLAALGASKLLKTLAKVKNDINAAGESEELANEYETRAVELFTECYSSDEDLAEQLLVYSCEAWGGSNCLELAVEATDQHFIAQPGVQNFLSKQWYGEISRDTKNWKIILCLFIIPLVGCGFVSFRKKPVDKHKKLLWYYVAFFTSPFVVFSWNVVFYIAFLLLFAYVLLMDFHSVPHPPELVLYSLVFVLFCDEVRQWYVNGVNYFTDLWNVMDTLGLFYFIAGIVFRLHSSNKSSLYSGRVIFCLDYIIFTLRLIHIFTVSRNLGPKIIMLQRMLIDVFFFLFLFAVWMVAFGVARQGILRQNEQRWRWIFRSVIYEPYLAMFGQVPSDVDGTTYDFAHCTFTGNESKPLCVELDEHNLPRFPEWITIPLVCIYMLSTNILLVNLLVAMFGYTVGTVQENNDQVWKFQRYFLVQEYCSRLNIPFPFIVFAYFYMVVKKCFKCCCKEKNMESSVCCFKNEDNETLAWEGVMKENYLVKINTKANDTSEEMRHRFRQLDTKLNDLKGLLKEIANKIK
Procedure: Using previously described testing methodologies, binding/functional tests were conducted on a commercial basis at Eurofins Laboratories (Poitiers, France) and Eurofins Panlabs Discovery Services Taiwan, Ltd. (New Taipei City, Taiwan); see Table S9 for more information.
Table S9. Radioligand binding and functional assays. […]
TRPM8 (h) (antagonist effect) […]
Assays were performed commercially in Eurofins Laboratories (Poitiers, France) or Eurofins Panlabs Discovery Services
Taiwan, Ltd. (New Taipei City, Taiwan).

[2] = system: capsaicin-induced pain, mice; assay: capsaicin-induced pain test; format: in vivo; conditions: Mus musculus, ip, 30 min before capsaicin
[3] = system: STZ-induced tactile allodynia, mice; assay: streptozotocin (STZ)-induced peripheral neuropathy, von Frey test; format: in vivo, mouse; conditions: 21 days after STZ
Description: To test whether the compounds are active in the neuropathic pain resulting from another mechanism of neuronal injury, we tested them in streptozotocin (STZ)-induced neuropathy. STZ is the commonly used experimental model to induce diabetic neuropathy. Streptozotocin is toxic to insulin-producing beta cells in the pancreas and selectively damages these cells, leading to insulin deficiency, which subsequently results in chronic hyperglycemia. Hyperglycemia is a major factor in the development of diabetic neuropathy. Elevated blood glucose levels increase its uptake by nerve cells, which results in metabolic and oxidative stress. Moreover, hyperglycemia leads to the formation of advanced glycation end products (AGEs), which are abnormal protein structures. AGEs can accumulate in neuronal tissue and contribute to nerve dysfunction.[63] […] Additionally, STZ-induced neuropathic pain may also involve alterations in the levels of neurotransmitters such as glutamate and GABA.[64],[65]
Each animal was tested only once. […] Behavioral measurements were observed by trained observers.

[4] = system: formalin-induced pain, mice; assay: formalin test; format: in vivo, mouse; conditions: 100 mg/kg i.p.
[5] = target: T2, Voltage-Gated Sodium channel hNav1.2 (Homo sapiens, UniProt Q99250); assay: human sodium ion channel cell based automated patch clamp assay, hNav1.2
T2 construct: Eurofins Discovery (St. Charles, MO, USA)
T2 sequence (Q99250 whole entry): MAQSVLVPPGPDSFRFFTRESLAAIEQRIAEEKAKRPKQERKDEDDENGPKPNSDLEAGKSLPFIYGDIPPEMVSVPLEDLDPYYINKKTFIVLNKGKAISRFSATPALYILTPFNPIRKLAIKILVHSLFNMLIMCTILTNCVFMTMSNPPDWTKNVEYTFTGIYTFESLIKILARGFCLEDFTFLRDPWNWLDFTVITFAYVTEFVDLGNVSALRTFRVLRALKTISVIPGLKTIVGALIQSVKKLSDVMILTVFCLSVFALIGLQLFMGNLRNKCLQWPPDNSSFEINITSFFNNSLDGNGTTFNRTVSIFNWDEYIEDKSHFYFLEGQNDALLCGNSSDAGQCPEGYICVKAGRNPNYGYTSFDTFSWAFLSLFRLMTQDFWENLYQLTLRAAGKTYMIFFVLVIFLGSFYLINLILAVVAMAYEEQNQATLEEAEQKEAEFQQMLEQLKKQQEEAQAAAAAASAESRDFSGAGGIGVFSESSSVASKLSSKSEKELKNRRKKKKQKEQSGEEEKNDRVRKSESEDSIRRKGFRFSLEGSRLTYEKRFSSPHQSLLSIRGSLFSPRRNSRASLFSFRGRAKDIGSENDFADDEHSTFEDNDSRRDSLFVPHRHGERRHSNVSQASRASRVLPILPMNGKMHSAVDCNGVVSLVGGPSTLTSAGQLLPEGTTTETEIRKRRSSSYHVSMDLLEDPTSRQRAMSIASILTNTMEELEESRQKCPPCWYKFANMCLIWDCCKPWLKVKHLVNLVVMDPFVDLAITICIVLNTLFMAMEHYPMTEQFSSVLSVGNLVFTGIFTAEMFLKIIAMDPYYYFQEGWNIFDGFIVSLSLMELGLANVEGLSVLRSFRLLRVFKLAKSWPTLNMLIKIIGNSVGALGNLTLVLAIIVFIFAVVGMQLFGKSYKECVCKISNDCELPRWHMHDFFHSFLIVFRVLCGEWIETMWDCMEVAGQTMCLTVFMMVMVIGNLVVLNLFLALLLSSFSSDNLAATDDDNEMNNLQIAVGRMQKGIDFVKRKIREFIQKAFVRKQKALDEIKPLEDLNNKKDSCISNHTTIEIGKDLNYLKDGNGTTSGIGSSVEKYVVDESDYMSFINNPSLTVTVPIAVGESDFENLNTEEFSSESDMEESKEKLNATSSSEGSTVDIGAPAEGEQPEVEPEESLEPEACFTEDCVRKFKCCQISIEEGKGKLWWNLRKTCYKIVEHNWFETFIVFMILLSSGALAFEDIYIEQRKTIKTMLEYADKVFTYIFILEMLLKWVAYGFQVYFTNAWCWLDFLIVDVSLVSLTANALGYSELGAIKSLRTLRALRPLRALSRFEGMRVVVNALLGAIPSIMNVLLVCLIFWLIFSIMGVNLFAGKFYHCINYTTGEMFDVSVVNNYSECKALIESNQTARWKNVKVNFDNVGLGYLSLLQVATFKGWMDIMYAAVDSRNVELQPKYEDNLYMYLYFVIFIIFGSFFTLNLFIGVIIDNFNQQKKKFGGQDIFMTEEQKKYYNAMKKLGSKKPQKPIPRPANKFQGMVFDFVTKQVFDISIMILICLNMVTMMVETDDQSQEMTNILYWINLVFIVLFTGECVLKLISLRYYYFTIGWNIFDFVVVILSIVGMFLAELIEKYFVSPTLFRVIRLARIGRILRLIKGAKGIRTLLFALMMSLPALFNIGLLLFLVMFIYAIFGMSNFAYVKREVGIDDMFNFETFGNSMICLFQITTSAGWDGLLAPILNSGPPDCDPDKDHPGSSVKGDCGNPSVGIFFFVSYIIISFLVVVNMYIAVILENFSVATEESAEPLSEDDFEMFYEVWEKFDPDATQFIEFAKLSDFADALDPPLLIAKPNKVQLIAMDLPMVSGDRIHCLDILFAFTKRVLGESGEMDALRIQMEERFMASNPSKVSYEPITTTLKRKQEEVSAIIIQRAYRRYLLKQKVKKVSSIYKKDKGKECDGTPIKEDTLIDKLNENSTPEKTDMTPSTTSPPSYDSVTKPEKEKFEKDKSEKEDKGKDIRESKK
Procedure: Therefore, as a part of the more detailed functional characterization using automated patch clamp method, we tested the influence of (R)-32 on sodium currents mediated by several Navx channels comprising 5 different human subunits, namely, Nav1.1, Nav1.2, Nav1.3, Nav1.6, and Nav1.7, which are involved in both seizure and/or pain modulation.[74],[80],[81] As summarized in Tables S4–S8, (R)-32 starting from 10 μM effectively and in concentration-dependent manner decreased sodium currents mediated by all aforementioned sodium channel subunits. Furthermore, (R)-32 appeared to bind exclusively to sodium channels that are in an inactivated state (see pulse 2 in Tables S4–S8), but not to the channels that are in an open state (pulse 1) (for additional details, see Supporting Information).
Human sodium ion channels cell based automated patch clamp assay
Human sodium ion channels cell based automated patch clamp assays: sodium channels exist in, a) a resting or closed state at -120 mV, b) a transient open state that inactivates to c) inactivated state at -10 mV. Sodium current inhibition within 1-2 ms of channel opening at 0 mV is open channel inhibition (pulse 1). In order to completely inactivate the sodium channels and facilitate inactivated state-dependent binding of the drug, the channels were kept at […] ( -10 mV) longer (pulsed for 500 ms) and then stepped back to -120 mV for 10 ms to recover from inactivation into resting or closed state (but the channels that had drug bound to them will not recover from inactivation and will not open) before stepping to -10 mV for 50 ms (pulse 2) to mea sure sodium channels that are available to open. The higher inhibition seen at pulse 2 is due to inactivated state -dependent inhibition. Pulse 1 and 2 are used to investigate drug binding to the open state and inactivated state of the Na channels, respectively. Each concentration of compound is applied for 5 minutes. The results obtained for (R)-32 are summerized in Tables S4–S8. […]
Compound Concentration Measurement % Inhibition
Data interpretation: Results showing inhibition greater than 50% are considered to represent significant effects of test compound and have been bolded for (R)-32 for better visualization. The studies were carried out in Eurofins Discovery (St. Charles, MO, USA).

[6] = target: T3, Voltage-Gated Sodium channel hNav1.7 (Homo sapiens, UniProt Q15858); assay: human sodium ion channel cell based automated patch clamp assay, hNav1.7
T3 construct: Eurofins Discovery (St. Charles, MO, USA)
T3 sequence (Q15858 whole entry): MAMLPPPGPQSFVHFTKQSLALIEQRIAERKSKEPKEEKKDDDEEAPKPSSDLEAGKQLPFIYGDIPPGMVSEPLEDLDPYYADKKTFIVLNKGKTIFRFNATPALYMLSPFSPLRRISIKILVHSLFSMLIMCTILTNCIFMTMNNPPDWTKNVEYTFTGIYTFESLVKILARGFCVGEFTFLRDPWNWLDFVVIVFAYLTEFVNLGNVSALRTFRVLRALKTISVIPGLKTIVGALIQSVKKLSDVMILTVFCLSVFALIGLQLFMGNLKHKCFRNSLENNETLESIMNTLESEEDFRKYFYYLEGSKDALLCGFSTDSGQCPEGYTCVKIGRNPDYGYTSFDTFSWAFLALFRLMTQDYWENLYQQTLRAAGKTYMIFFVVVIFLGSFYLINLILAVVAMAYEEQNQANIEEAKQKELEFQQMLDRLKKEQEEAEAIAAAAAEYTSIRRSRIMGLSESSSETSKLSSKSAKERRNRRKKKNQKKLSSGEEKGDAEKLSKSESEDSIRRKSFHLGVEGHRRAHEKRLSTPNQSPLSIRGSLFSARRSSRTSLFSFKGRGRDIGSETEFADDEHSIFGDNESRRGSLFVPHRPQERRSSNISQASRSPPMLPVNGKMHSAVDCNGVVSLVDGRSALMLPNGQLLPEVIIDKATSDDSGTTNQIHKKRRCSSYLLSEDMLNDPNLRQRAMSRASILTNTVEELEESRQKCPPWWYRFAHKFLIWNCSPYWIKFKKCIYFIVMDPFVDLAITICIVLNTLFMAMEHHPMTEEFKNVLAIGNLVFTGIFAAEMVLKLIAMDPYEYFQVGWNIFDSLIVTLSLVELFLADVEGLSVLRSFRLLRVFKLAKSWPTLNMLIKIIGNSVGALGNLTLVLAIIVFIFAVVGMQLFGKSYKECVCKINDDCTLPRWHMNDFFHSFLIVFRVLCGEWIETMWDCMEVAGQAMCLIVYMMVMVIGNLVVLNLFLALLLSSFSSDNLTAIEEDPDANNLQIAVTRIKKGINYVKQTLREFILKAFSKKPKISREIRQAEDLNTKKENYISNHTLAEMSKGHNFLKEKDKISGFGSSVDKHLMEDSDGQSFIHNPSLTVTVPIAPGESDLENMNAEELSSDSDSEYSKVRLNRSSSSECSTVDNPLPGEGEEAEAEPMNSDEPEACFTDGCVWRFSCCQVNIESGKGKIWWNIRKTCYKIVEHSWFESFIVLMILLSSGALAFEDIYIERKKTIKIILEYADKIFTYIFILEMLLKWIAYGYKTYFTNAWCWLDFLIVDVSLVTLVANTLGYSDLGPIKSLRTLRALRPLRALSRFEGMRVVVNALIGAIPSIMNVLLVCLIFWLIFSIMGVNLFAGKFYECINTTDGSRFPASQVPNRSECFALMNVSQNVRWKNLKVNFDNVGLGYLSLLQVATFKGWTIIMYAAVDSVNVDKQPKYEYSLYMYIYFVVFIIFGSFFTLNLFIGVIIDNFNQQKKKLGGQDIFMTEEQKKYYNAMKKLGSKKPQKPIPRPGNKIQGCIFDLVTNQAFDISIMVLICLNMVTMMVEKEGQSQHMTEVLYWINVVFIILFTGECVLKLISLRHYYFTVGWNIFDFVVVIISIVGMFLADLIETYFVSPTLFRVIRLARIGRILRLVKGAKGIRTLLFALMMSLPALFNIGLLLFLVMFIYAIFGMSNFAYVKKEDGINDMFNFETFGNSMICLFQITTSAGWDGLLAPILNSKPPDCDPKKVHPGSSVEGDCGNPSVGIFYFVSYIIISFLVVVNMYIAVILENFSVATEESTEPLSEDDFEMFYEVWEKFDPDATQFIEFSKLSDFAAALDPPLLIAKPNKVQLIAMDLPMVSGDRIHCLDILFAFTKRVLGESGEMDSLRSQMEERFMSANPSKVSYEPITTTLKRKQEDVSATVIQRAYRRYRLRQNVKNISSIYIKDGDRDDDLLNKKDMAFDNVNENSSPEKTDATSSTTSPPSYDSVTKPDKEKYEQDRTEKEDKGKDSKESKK
Description: Human sodium ion channels cell based automated patch clamp assays: sodium channels exist in, a) a resting or closed state at -120 mV, b) a transient open state that inactivates to c) inactivated state at -10 mV. Sodium current inhibition within 1-2 ms of channel opening at 0 mV is open channel inhibition (pulse 1). In order to completely inactivate the sodium channels and facilitate inactivated state-dependent binding of the drug, the channels were kept at open state ( -10 mV) longer (pulsed for 500 ms) and then stepped back to -120 mV for 10 ms to recover from inactivation into resting or closed
open) before stepping to -10 mV for 50 ms (pulse 2) to mea sure sodium channels that are available to open. […] Pulse 1 and 2 are used to investigate drug binding to the open state and inactivated state of the Na channels, respectively. Each concentration of compound is applied for 5 minutes.
Voltage-Gated Sodium channel hNav1.1

[7] = hNav1.2, Pulse 1 (open state), read-out: % Inhibition Mean
[8] = hNav1.2, Pulse 1 (open state), read-out: % Inhibition n1
[9] = hNav1.2, Pulse 1 (open state), read-out: % Inhibition n2
[10] = hNav1.2, Pulse 2 (inactivated state), read-out: % Inhibition Mean
[11] = hNav1.2, Pulse 2 (inactivated state), read-out: % Inhibition n1
[12] = hNav1.2, Pulse 2 (inactivated state), read-out: % Inhibition n2
[13] = hNav1.7, Pulse 1 (open state), read-out: % Inhibition Mean
[14] = hNav1.7, Pulse 1 (open state), read-out: % Inhibition n1
[15] = hNav1.7, Pulse 1 (open state), read-out: % Inhibition n2
[16] = hNav1.7, Pulse 2 (inactivated state), read-out: % Inhibition Mean
[17] = hNav1.7, Pulse 2 (inactivated state), read-out: % Inhibition n1
[18] = hNav1.7, Pulse 2 (inactivated state), read-out: % Inhibition n2

CC(=O)N[C@@H](C(=O)N1CCN(c2cccc(C(F)(F)F)c2)CC1)c1ccccc1 [(R)-31, (R)-N-(2-Oxo-1-phenyl-2-(4-(3-(trifluoromethyl)phenyl)piperazin-1-yl)ethyl)acetamide]
inhibition at 10 µM [1]: 4.6%
ED50 [2]: 53.9 mg/kg
pain threshold in STZ-induced neuropathy, % of the baseline ([3]; 25 mg/kg i.p.): did not observe any significant effects
pain threshold in STZ-induced neuropathy, % of the baseline ([3]; 50 mg/kg i.p.): 123%
pain threshold in STZ-induced neuropathy, % of the baseline ([3]; 100 mg/kg i.p.): 178%
nociceptive response, acute phase of the formalin test ([4]; 0–5 min after formalin): significantly attenuated the nociceptive response
nociceptive response, late phase of the formalin test ([4]; 15–30 min after formalin): significantly attenuated the nociceptive response

CCCCNc1ccc(C(=O)OCCN(C)C)cc1 [Tetracaine, reference compound]
inhibition at 3 µM [5, 7]: -2.64%
inhibition at 3 µM [5, 8]: 5.99%
inhibition at 3 µM [5, 9]: -11.3%
inhibition at 30 µM [5, 7]: 14%
inhibition at 30 µM [5, 8]: 19%
inhibition at 30 µM [5, 9]: 8.92%
inhibition at 300 µM [5, 7]: 70%
inhibition at 300 µM [5, 8]: 64.9%
inhibition at 300 µM [5, 9]: 75.1%
inhibition at 3 µM [5, 10]: 54.9%
inhibition at 3 µM [5, 11]: 55.2%
inhibition at 3 µM [5, 12]: 54.7%
inhibition at 30 µM [5, 10]: 99.6%
inhibition at 30 µM [5, 11]: 98.8%
inhibition at 30 µM [5, 12]: 100%
inhibition at 300 µM [5, 10]: 101%
inhibition at 300 µM [5, 11]: 99.9%
inhibition at 300 µM [5, 12]: 101%
inhibition at 3 µM [6, 13]: 8.82%
inhibition at 3 µM [6, 14]: 11.3%
inhibition at 3 µM [6, 15]: 6.36%
inhibition at 30 µM [6, 13]: 27.6%
inhibition at 30 µM [6, 14]: 27.5%
inhibition at 30 µM [6, 15]: 27.8%
inhibition at 300 µM [6, 13]: 95.1%
inhibition at 300 µM [6, 14]: 94.6%
inhibition at 300 µM [6, 15]: 95.6%
inhibition at 3 µM [6, 16]: 47.5%
inhibition at 3 µM [6, 17]: 45.9%
inhibition at 3 µM [6, 18]: 49.1%
inhibition at 30 µM [6, 16]: 98.6%
inhibition at 30 µM [6, 17]: 98%
inhibition at 30 µM [6, 18]: 99.2%
inhibition at 300 µM [6, 16]: 101%
inhibition at 300 µM [6, 17]: 101%
inhibition at 300 µM [6, 18]: 102%
